Results published in patent US6242452A, “7-aminopyrido[2,3-D]pyrimidine derivatives” (Nippon Zoki Pharmaceutical Co., Ltd., priority 1998, dated 2001).

What was measured:
[1] = Concentration in blood of guinea pigs; assay type: in vivo; settings: oral, 30 mg/kg in 1% methyl cellulose, plasma, HPLC; for AUC / Cmax / half-life / Tmax: guinea pig; for AUC: read-out: AUC 0-lim, area under a curve of concentration in blood vs. time; for Cmax: read-out: Cmax, maximum concentration in blood; for half-life: read-out: T1/2, half life in blood (converted); for Tmax: read-out: Tmax, time required for achieving the maximum concentration in blood
Description: Concentration in Blood of Guinea Pigs
Each test substance was orally administered at a dose of 30 mg/kg. It was suspended in 1% methyl cellulose and made into a preparation so as to make the administering dose 5 mL/kg. A group consisted of four animals and blood was collected after 30 minutes, 1 hour, 2 hours, 4 hours, 6 hours and 24 hours from the administration. (A feed was given after collection of the blood after 6 hours). Thus, each about […] (corresponding to four capillary tubes) of blood were collected with intervals using a heparintreated capillary tube and plasma was separated by a hematocrit centrifuge to prepare a plasma sample. A plasma sample of about […] was preserved at -80° C. until the measurement. Methanol ([…]) was added to […] of the plasma followed by mixing, the mixture was centrifuged at 1500×g for ten minutes at […] and the separated supernatant liquid was filtered through a membrane filter of […]. The filtrate was used as a sample for an HPLC, analyzed under the analyzing condition that the column was 100 mm×4.6 mm (inner diameter) of TSK-gel Super ODS, the flow rate was 1.0 mL/minute, the column temperature was 40° C., an injection amount was […], detection was done by UV of 225 nm and the mobile phase was water-acetonitrile (75:25 in terms of % by volume) and the maximum concentration in blood (Cmax), time required for achieving the maximum concentration in blood (Tmax), half life in blood (T1/2) and area under a curve of concentration in blood vs. time (AUC 0-lim) were determined. RS-25344 (Cell Signalling, 7(5), 527 (1995); Mol. Pharmacol., 48, 616 (1995)) and CR-77059 (J. Med. Chem., 34, 624 (1991); J. Pharmacol. Exp. Ther., 272, 3,1313 (1995)) were used as control drugs.

[2] = test system: airway smooth muscle isolated from guinea pigs; test: Relaxing action to smooth muscle of airway of guinea pigs (histamine-constricted); assay type: cell-based; settings: Cavia porcellus; guinea pig airway, constricted with 10^-4 M histamine, cumulative addition; read-out: EC50, concentration showing 50% of the maximum reaction (relaxation)
Source text: […] Action to Smooth Muscle of Airway of Guinea Pigs A guinea pig was killed by draining out the blood, the airway was isolated, and four airway pieces having a width of about 1 cm cut along the cartilage were connected by silk yarn to prepare an airway smooth muscle sample. The sample was hung with a load of about 0.5 g in a 5-mL Magnus vessel filled with a Tyrode solution and aerated with a mixed gas (95% O2 and 5% CO2). […] This was repeatedly treated with 10^-5 M of histamine and, after confirming that the constriction became constant, it was treated with 10^-4 M of histamine. After the maximum constriction reaction of the smooth muscle became constant, the test compound was added thereto starting from a low concentration cumulatively to investigate the relaxing action. […] Pat. […] Pat. No. 4,808,587 to Go et al and in U.S. Pat. No. 5,776,942 to Furukawa et al) and theophylline were used as control agents.

[3] = test system: smooth muscle of blood vessel isolated from rats; test: Influence on continuous constriction of smooth muscle of blood vessel isolated from rats (noradrenaline-constricted pulmonary main artery); assay type: cell-based; settings: rat pulmonary main artery, constricted with 10^-7 M noradrenaline, 37° C.; read-out: EC50, concentration showing 50% of the maximum reaction (relaxation)
Description: Influence on Continuous Constriction of […] Smooth Muscle of Rats
The back of the head of a rat was struck to cause a cerebral concussion, carotid arteries on both sides were immediately cut and the pulmonary main artery was isolated. The isolated artery was fully aerated with a mixed gas (95% O2 and 5% CO2), placed in a Krebs-Henselite solution warmed at 37° C., excessive tissues were removed as much as possible and a spiral sample (having a width of about 2 mm and a length of 15 mm) was prepared according to a method of Furchgott, et al. The blood vessel sample was hung with a load of about 0.5 g in a 5-mL Magnus vessel filled with a Krebs-Henseleit solution and aerated with a mixed gas (95% O2 and 5% CO2). After the sample was allowed to stand for 30 minutes to one hour, it was treated with noradrenaline (final concentration: 10^-7 M) and the constricting reaction was amplified via an amplifier for blood pressure using an FD pickup and recorded on a recorder. Noradrenaline (10^-7 M) was repeatedly applied and, after confirming that the constriction became constant, 10^-7 M of noradrenaline was applied. After the maximum shrinking reaction of the smooth muscle became constant, the test compound was added thereto starting from a low concentration cumulatively to investigate the relaxing action. A dose vs. reaction curve was prepared from the isotonic reaction of various concentrations of the test compound and an EC50, a concentration showing 50% of the maximum reaction, was determined.

Mice = test: Influence on general symptoms of mice (modified Irwin's method); assay type: in vivo; settings: for Death: oral, 5 mice per group, until the next day
Description: Influence on General Symptoms of Mice
Mice having no abnormality in their appearance before administration of the test drugs were selected, and five mice were used for each group. Oral administration of the test compound was carried out and, 30 minutes, one hour and two hours thereafter, observations were conducted according to the modified method of Irwin's method for observing the general symptoms of mice. Degree of the symptom was evaluated in terms of (+) and (-) and, when the symptom was apparently severe, it was mentioned as (++). Also, death was observed until the next day of the administration.
1) Suppression of spontaneous motility: When mice were transferred from a home cage to a cage for symptom observation and, if motion of the mice was less than the non-administered group at that time, that was evaluated as (+).
2) Muscle relaxation: When forefeet of mice were hung on a wire stretched horizontally so that the mice were hung by means of the forefeet and, if their reaction at that time for climbing up the wire took a longer time than the non-administered group, that was evaluated as (+).
4) Blepharoptosis: If 1/4 or more was closed as compared with the non-administered group, that was evaluated as (+).
5) Salivation: If salivation was noted a little around the mouth, that was evaluated as (+).
6) Death: If dead case was noted, that was mentioned as such.
5-Amino-1,3-diethyl-1,2,3,4-tetrahydropyrido[2,3-d]-pyrimidine-2,4-dione (Control Compound B; a compound mentioned in Japanese Laid-Open Patent Publication Sho-63/45279 and in U.S. Pat. Nos. 4,808,587 and 5,776,942) was used as a control drug.

COc1cc(OC)cc(-n2c(=O)n(CC(C)C)c(=O)c3ccc(N)nc32)c1 [Compound 15]
AUC [1]: 134 µg·h/mL
Cmax [1]: 10100 ng/mL
half-life [1]: 9.8 h
Tmax [1]: 2.3 h
EC50 [2]: 210 nM
EC50 [3]: > 100000 nM

Nc1ccc2c(=O)n(Cc3ccco3)c(=O)n(-c3ccccc3)c2n1 [Compound 38, 7-amino-3-(2-furfuryl)-1,2,3,4-tetrahydro-1-phenylpyrido [2,3-d]pyrimidine-2,4-dione]
EC50 [2]: 40 nM

CCn1c(=O)c2c(N)ccnc2n(CC)c1=O [Control Compound B, 5-Amino-1,3-diethyl-1,2,3,4-tetrahydropyrido[2,3-d]-pyrimidine-2,4-dione, reference compound]
EC50 [2]: 830 nM
Blepharoptosis (Mice; mouse, in vivo, po, 100 mg/kg): (+) × 2
Muscle relaxation (Mice; mouse, in vivo, po, 100 mg/kg): (+) × 3
Passiveness (Mice; mouse, in vivo, po, 100 mg/kg): (+) × 1
Suppression of spontaneous motility (Mice; mouse, in vivo, po, 100 mg/kg): (+) × 3
Suppression of spontaneous motility (Mice; mouse, in vivo, po, 300 mg/kg): (+) × 3
Death (Mice; 100 mg/kg): 0
Death (Mice; 300 mg/kg): 0

COc1cc(OC)cc(-n2c(=O)n(Cc3ccccc3)c(=O)c3ccc(N)nc32)c1 [Compound 8, 7-amino-3-benzyl-1-(3,5-dimethoxyphenyl)-1,2,3,4-tetrahydropyrido[2,3-d]pyrimidine-2,4-dione]
EC50 [2]: 320 nM

CCn1c(=O)c2ccc(N)nc2n(-c2cc(OC)cc(OC)c2)c1=O [Compound 5, 7-amino-3-ethyl-1-(3,5-dimethoxyphenyl)-1,2,3,4-tetrahydropyrido[2,3-d]pyrimidine-2,4-dione]
AUC [1]: 458 µg·h/mL
Cmax [1]: 30000 ng/mL
half-life [1]: 12.1 h
Tmax [1]: 3 h
EC50 [2]: 1700 nM
Blepharoptosis (Mice; mouse, in vivo, po, 1000 mg/kg): (+) × 3
Muscle relaxation (Mice; mouse, in vivo, po, 1000 mg/kg): (+) × 3
Suppression of spontaneous motility (Mice; mouse, in vivo, po, 1000 mg/kg): (+) × 2
Death (Mice; 1000 mg/kg): 0
EC50 [3]: > 100000 nM

O=c1c2cccnc2n(-c2cccc([N+](=O)[O-])c2)c(=O)n1Cc1ccncc1 [RS-25344, reference compound]
Concentration in blood (in words, Table 6) [1]: less than identification limit

Cn1c(=O)c2[nH]cnc2n(C)c1=O [theophylline, reference compound]
EC50 [2]: 51000 nM

COc1ccc(Cn2c(=O)c3ccc(N)nc3n(-c3ccccc3)c2=O)cc1 [Compound 28, 7-amino-1,2,3,4-tetrahydro-3-(4-methoxybenzyl)-1-phenylpyrido[2,3-d]pyrimidine-2,4-dione]
EC50 [2]: 45 nM

Nc1ccc2c(=O)n(Cc3ccncc3)c(=O)n(-c3ccccc3)c2n1 [Compound 17, 7-amino-1,2,3,4-tetrahydro-1-phenyl-3-(4-picolyl) pyrido[2,3-d]pyrimidine-2,4-dione]
EC50 [2]: 19 nM

Nc1ccc2c(=O)n(Cc3cccs3)c(=O)n(-c3ccccc3)c2n1 [Compound 37, 7-amino-1,2,3,4-tetrahydro-1-phenyl-3-(2-thienylmethyl)pyrido [2,3-d]pyrimidine-2,4-dione]
EC50 [2]: 21 nM

CCCn1c(=O)c2ccc(N)nc2n(-c2cc(OC)cc(OC)c2)c1=O [Compound 6, 7-amino-1-(3,5-dimethoxyphenyl)-1,2,3,4-tetrahydro-3-propylpyrido[2,3-d]pyrimidine-2,4-dione]
AUC [1]: 256 µg·h/mL
Cmax [1]: 13700 ng/mL
half-life [1]: 28.4 h
Tmax [1]: 4 h
EC50 [2]: 400 nM
Blepharoptosis (Mice; mouse, in vivo, po, 300 mg/kg): (+) × 1
Suppression of spontaneous motility (Mice; mouse, in vivo, po, 300 mg/kg): (+) × 1
Blepharoptosis (Mice; mouse, in vivo, po, 1000 mg/kg): (+) × 2
Muscle relaxation (Mice; mouse, in vivo, po, 1000 mg/kg): (+) × 2
Suppression of spontaneous motility (Mice; mouse, in vivo, po, 1000 mg/kg): (+) × 2
Death (Mice; 300 mg/kg): 0
Death (Mice; 1000 mg/kg): 0
EC50 [3]: > 100000 nM

Nc1ccc2c(=O)n(Cc3ccsc3)c(=O)n(-c3ccccc3)c2n1 [Compound 39, 7-amino-1,2,3,4-tetrahydro-1-phenyl-3-(3-thienylmethyl)pyrido [2,3-d]pyrimidine-2,4-dione]
EC50 [2]: 27 nM

CCCCn1c(=O)c2ccc(N)nc2n(-c2cc(OC)cc(OC)c2)c1=O [Compound 7, 7-amino-3-butyl-1-(3,5-dimethoxyphenyl)-1,2,3,4-tetrahydropyrido[2,3-d]pyrimidine-2,4-dione]
AUC [1]: 28.6 µg·h/mL
Cmax [1]: 1600 ng/mL
half-life [1]: 131 h
Tmax [1]: 15 h
EC50 [2]: 590 nM
Blepharoptosis (Mice; mouse, in vivo, po, 300 mg/kg): (+) × 1
Muscle relaxation (Mice; mouse, in vivo, po, 300 mg/kg): (+) × 2
Suppression of spontaneous motility (Mice; mouse, in vivo, po, 300 mg/kg): (+) × 2
Muscle relaxation (Mice; mouse, in vivo, po, 1000 mg/kg): (+) × 3
Death (Mice; 300 mg/kg): 0
Death (Mice; 1000 mg/kg): 0

CCn1c(=O)c2ccc(N)nc2n(CC)c1=O [Control Compound A, 7-Amino-1,3-diethyl-1,2,3,4-tetrahydropyrido-[2,3-d]pyrimidine-2,4-dione, reference compound]
EC50 [2]: 1010 nM

Nc1ccc2c(=O)n(Cc3ccccc3)c(=O)n(-c3ccccc3)c2n1 [Compound 16, 7-amino-3-benzyl-1,2,3,4-tetrahydro-1-phenylpyrido[2,3-d]pyrimidine-2,4-dione]
EC50 [2]: 23 nM
EC50 [3]: 50100 nM

Nc1ccc2c(=O)n(Cc3ccc(F)cc3)c(=O)n(-c3ccccc3)c2n1 [Compound 29, 7-amino-3-(4-fluorobenzyl)-1,2,3,4-tetrahydro-1-phenylpyrido[2,3-d]pyrimidine-2,4-dione]
EC50 [2]: 76 nM

COc1cc(OC)cc(-n2c(=O)n(Cc3ccncc3)c(=O)c3ccc(N)nc32)c1 [Compound 18, 7-amino-1-(3,5-dimethoxyphenyl)-1,2,3,4-tetrahydro-3-(4-picolyl)pyrido[2,3-d]pyrimidine-2,4-dione]
EC50 [2]: 61 nM
EC50 [3]: > 100000 nM

COC(=O)c1cccc(-n2c(=O)n(Cc3ccccc3)c(=O)c3cccnc32)c1 [CP-77059, reference compound]
Concentration in blood (in words, Table 6) [1]: less than identification limit
